Here are results for 5 molecules from paper PMC12500856 (Nature Communications, 2025).

As usually defined, the Km is the concentration of substrate that gives half-maximal velocity. For orientation: kcat means the maximal rate divided by the concentration of active sites.

The target of data set [1] is T1, SgGouE (Streptomyces graminearus, UniProt K4HPM3).
T1 sequence (K4HPM3 1-246): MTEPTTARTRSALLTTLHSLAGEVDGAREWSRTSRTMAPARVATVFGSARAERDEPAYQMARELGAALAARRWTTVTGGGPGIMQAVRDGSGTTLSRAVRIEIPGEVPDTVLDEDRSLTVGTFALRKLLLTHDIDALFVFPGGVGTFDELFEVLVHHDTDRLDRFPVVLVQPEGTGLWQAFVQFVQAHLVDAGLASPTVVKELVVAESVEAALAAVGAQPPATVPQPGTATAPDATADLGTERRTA
Briefly: HPLC turnover assay. It is filed as biochemical.

The next data set addresses T2, CodA (Escherichia coli, UniProt P25524).
T2 sequence (P25524 2-427): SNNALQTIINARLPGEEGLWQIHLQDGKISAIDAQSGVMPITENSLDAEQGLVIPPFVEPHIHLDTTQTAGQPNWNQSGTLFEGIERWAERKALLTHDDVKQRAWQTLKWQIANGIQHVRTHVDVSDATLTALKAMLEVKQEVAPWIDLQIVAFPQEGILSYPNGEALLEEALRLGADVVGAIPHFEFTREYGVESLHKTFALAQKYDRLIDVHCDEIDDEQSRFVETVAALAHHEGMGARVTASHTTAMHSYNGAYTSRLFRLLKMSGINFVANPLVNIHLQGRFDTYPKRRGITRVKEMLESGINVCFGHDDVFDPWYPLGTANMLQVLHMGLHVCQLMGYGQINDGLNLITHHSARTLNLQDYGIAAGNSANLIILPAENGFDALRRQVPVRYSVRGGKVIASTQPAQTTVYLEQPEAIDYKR
Briefly: HPLC, deamination in cascade. The format is biochemical. Conditions: 50 mM Tris-HCl pH 8.0, 1 mM MgCl2, 30 °C.

Data set [2] concerns the target T1, SgGouE. Briefly: HPLC turnover assay. The format is biochemical. Conditions: 50 mM Tris-HCl pH 8.0, 1 mM CMP, 1 mM MgCl2, 30 °C (cascade).
The target in a further data set is HDHD1 (Homo sapiens, UniProt Q08623). The data set can be described thus: in vitro competition assay, dephosphorylation. It is filed as biochemical. The following applies: competition with UMP.
Chain of HDHD1 (Q08623 whole entry): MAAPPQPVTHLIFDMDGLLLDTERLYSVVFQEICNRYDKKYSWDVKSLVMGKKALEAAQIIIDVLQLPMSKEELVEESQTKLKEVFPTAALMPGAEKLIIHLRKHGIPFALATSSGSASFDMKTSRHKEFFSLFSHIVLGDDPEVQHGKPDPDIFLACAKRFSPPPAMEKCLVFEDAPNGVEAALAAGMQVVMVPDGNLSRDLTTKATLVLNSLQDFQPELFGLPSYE
For the next data set, the target named is PhoA (Escherichia coli, UniProt P00634). Briefly: HPLC, dephosphorylation in cascade. The format is biochemical. The following applies: 50 mM Tris-HCl pH 8.0, 1 mM MgCl2, 30 °C.
Chain of PhoA (P00634 22-471): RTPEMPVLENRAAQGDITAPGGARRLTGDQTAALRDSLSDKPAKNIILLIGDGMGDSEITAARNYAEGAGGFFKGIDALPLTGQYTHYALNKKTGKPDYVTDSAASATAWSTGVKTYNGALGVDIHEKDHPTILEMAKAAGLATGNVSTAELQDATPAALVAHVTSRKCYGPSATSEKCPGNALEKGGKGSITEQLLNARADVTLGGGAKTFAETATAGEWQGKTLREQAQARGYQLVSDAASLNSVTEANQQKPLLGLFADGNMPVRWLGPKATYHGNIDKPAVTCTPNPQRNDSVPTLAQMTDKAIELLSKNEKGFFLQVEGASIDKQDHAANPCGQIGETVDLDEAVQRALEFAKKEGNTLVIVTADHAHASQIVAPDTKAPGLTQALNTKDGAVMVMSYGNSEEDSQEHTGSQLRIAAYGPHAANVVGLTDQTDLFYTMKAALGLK
Substrate in data set [3]: O=c1ccn([C@@H]2O[C@H](COP(=O)(O)O)[C@@H](O)[C@H]2O)c(=O)[nH]1
Briefly: kinetic analysis of UMP hydrolysis. It is filed as biochemical, Neisseria meningitidis.

On SgGouE [1], `O=c1ccn([C@@H]2O[C@H](COP(=O)(O)O)[C@@H](O)[C@H]2O)c(=O)[nH]1` [UMP] displayed a relative efficiency of 50%.

`Nc1cc[nH]c(=O)n1` [cytosine]: the “HPLC, deamination in cascade” value on CodA was “cytosine can be easily deaminated by CodA (deaminase)”.

Consider `Nc1ccn([C@@H]2O[C@H](COP(=O)(O)O)[C@@H](O)[C@H]2O)c(=O)n1` [CMP], for which, at SgGouE [2], the HPLC turnover assay entry was “we found that SgGouE indicates the most superior performance”.

Take `O=c1[nH]cc([C@@H]2O[C@H](COP(=O)(O)O)[C@@H](O)[C@H]2O)c(=O)[nH]1` [ΨMP]: the “in vitro competition assay, dephosphorylation” value on HDHD1 was “HDHD1 has prominent specificity and activity against the latter substrate”. The “HPLC, dephosphorylation in cascade” value at PhoA was “the phosphatase PhoA was utilized for the dephosphorylation of ΨMP for related assays”.

B1: NmYgdH (Neisseria meningitidis MC58) (protein)
chain: MENTNRVPEQARYDAERRQADEALAGVFPAVSIFGSARTPQNHADYAFACRLARRLSDSGIAVISGGGPGIMEAANKGAFAGKSVSVGLNIVLPHEQKPNPYQDIALRFSRFAERKAVFFRYSQAYVVMPGGFGTLDELFEILTLVQTGKVPPRPIVLVGKAFWSGLAEWINAQLLARGLISEGAVSLFAISDDEDEIVAYLSEHGLQTA
B1: in data set [3], the Michaelis constant (Km) is given as 11.78 ± 0.81 mM and the turnover number (kcat) is 81.90 ± 2.60 s⁻¹.
